From patent US20230348426A1, “OXOPYRROLIDINE FPR2 AGONISTS” (Bristol-Myers Squibb Company, priority 2020, published 2023)

Legend:
[1] = target: human FPR1 (Homo sapiens (Human), UniProt P21462); assay: FPR1 cyclic adenosine monophosphate (cAMP) assay; type: cell-based; conditions: CHO cells overexpressing human FPR1; forskolin 10 µM; inhibition of cAMP production; read-out: hFPR1 cAMP EC50
From the text: (§1) N-formyl peptide receptors (FPRs) are a family of chemo attractant receptors that facilitate leukocyte response during inflammation. FPRs belong to the seven-transmembrane G protein-coupled receptor superfamily and are linked to inhibitory G-proteins (Gi). Three family members (FPR1, FPR2 and FPR3) have been identified in humans and are predominantly found in myeloid cells with varied distribution and have also been reported in multiple organs and tissues. After agonist binding, the FPRs activate a multitude of physiological pathways, such as intra cellular signaling transduction, Ca^2+ mobilization and transcription. The family interacts with a diverse set of ligands that includes proteins, polypeptides and fatty acid metabolites which activate both pro-inflammatory and pro-resolution downstream responses. FPR2 and FPR1 Cyclic Adenosine Monophosphate (cAMP) Assays were used to measure the activity of the compounds in this patent.
FPR2 and FPR1 Cyclic Adenosine Monophosphate (cAMP) Assays. A mixture of forskolin (5 µM final for FPR2 or 10 µM final for FPR1) and IBMX (200 µM final) were added to 384-well Proxiplates (Perkin-Elmer) pre-dotted with test compounds in DMSO (1% final) at final concentrations in the range of 0.020 nM to 100 µM. Chinese Hamster Ovary cells (CHO) overexpressing human FPR1 or human FPR2 receptors were cultured in F-12 (Ham’s) medium supplemented with 10% qualified FBS, 250 µg/ml zeocin and 300 µg/ml hygromycin (Life Technologies). Reactions were initiated by adding 2,000 human FPR2 cells per well or 4,000 human FPR1 cells per well in Dulbecco’s PBS (with calcium and magnesium) (Life Technologies) supplemented with 0.1% BSA (Perkin-Elmer). The reaction mixtures were incubated for 30 min at room temperature. The level of intracellular cAMP was determined using the HTRF HiRange cAMP assay reagent kit (Cisbio) according to manufacturer’s instruction. Solutions of cryptate conjugated anti-cAMP and d2 flurorophore-labelled cAMP were made in a supplied lysis buffer separately. Upon completion of the reaction, the cells were lysed with equal volume of the d2-cAMP solution and anti-cAMP solution. […] The potency and activity of a compound to inhibit cAMP production was then determined by fitting to a 4-parametric logistic equation from a plot of cAMP level versus compound concentrations.

[2] = target: human FPR2 (Homo sapiens (Human), UniProt P25090); assay: FPR2 cyclic adenosine monophosphate (cAMP) assay; type: cell-based; conditions: CHO cells overexpressing human FPR2; forskolin 5 µM; inhibition of cAMP production; read-out: hFPR2 cAMP2 EC50
From the text: as §1
FPR2 and FPR1 Cyclic Adenosine Monophosphate (cAMP) Assays. A mixture of forskolin (5 µM final for FPR2 or 10 µM final for FPR1) and IBMX (200 µM final) were added to 384-well Proxiplates (Perkin-Elmer) pre-dotted with test compounds in DMSO (1% final) at final concentrations in the range of 0.020 nM to 100 µM. Chinese Hamster Ovary cells (CHO) overexpressing human FPR1 or human FPR2 receptors were cultured in F-12 (Ham’s) medium supplemented with 10% qualified FBS, 250 µg/ml zeocin and 300 µg/ml hygromycin (Life Technologies). Reactions were initiated by adding 2,000 human FPR2 cells per well or 4,000 human FPR1 cells per well in Dulbecco’s PBS (with calcium and magnesium) (Life Technologies) supplemented with 0.1% BSA (Perkin-Elmer). The reaction mixtures were incubated for 30 min at room temperature. The level of intracellular cAMP was determined using the HTRF HiRange cAMP assay reagent kit (Cisbio) according to manufacturer’s instruction. Solutions of cryptate conjugated anti-cAMP and d2 flurorophore-labelled cAMP were made in a supplied lysis buffer separately. Upon completion of the reaction, the cells were lysed with equal volume of the d2-cAMP solution and anti-cAMP solution. After a 1-h room temperature incubation, time-resolved fluorescence intensity was measured using the Envision (Perkin-Elmer) at 400 nm excitation and dual emission at 590 nm and 665 nm. A calibration curve was constructed with an external cAMP standard at concentrations ranging from 1 µM to 0.1 pM by plotting the fluorescent intensity ratio from 665 nm emission to the intensity from the 590 nm emission against cAMP concentrations. The potency and activity of a compound to inhibit cAMP production was then determined by fitting to a 4-parametric logistic equation from a plot of cAMP level versus compound concentrations.

human FPR1, sequence (P21462 whole entry): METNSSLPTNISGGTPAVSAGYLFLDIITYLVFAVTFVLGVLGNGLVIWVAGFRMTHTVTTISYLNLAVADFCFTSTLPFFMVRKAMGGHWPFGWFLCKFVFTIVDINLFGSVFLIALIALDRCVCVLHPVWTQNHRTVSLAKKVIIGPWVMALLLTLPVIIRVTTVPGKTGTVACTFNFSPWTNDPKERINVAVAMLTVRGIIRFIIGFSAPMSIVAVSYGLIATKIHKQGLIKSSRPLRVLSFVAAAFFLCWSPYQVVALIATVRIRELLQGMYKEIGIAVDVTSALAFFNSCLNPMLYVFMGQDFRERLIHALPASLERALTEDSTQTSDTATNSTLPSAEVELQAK
human FPR2, sequence (P25090 whole entry): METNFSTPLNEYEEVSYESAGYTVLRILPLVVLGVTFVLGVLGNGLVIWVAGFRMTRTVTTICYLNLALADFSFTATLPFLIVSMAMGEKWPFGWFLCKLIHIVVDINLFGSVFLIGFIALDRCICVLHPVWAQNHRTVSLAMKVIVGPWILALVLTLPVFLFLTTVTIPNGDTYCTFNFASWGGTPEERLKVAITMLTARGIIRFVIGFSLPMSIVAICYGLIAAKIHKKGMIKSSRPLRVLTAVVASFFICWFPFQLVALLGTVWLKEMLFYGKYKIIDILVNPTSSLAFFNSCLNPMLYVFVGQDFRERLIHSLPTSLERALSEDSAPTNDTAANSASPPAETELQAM

EC50 [1] [nM]	EC50 [2] [nM]	Compound
16	3	COCCn1cccc(N2C[C@@H](c3c(F)cc(OC)cc3F)[C@H](NC(=O)c3ccc(OC(F)F)cc3)C2=O)c1=O [Example 113]
2.8	3	COCC(CO)n1ccc(C)c(N2C[C@@H](c3c(F)cc(OC)cc3F)[C@H](NC(=O)c3ccc(OC(F)F)cc3)C2=O)c1=O (stereo partly drawn) [Example 112]
440	3.4	COc1cc(F)c([C@@H]2CN(c3cccn4cc(CO)nc34)C(=O)[C@H]2NC(=O)c2ccc(Cl)cc2)c(F)c1 [Example 494]
610	3.5	COc1cc(F)c([C@@H]2CN(c3ccc(C)n(C)c3=O)C(=O)[C@H]2NC(=O)c2ccc(Cl)cc2)c(F)c1 [Example 140]
1100	3	COc1cc(F)c([C@@H]2CN(c3nc(C)ccc3F)C(=O)[C@H]2NC(=O)c2ccc(Cl)cc2)c(F)c1 [Example 111]
570	5.1	COc1cc(F)c([C@@H]2CN(c3cccn(C)c3=O)C(=O)[C@H]2NC(=O)c2ccc(Cl)cc2)c(F)c1 [Example 193]
> 10000	4.3	COc1cc(F)c([C@@H]2CN(c3nccc(N4C[C@@H](C)N(C)[C@@H](C)C4)c3C#N)C(=O)[C@H]2NC(=O)c2ccc(Cl)cc2)c(F)c1 [Example 167]
280	6.9	COc1cc(F)c([C@@H]2CN(c3nc(N4C(=O)CC[C@H]4CO)ccc3F)C(=O)[C@H]2NC(=O)c2ccc(OC(F)(F)F)cc2)c(F)c1 [Example 246]
3500	4.3	COc1cc(F)c([C@H]2[C@H](NC(=O)c3ccc(Cl)cc3)C(=O)N(c3cncn(CC(F)F)c3=O)[C@@H]2C)c(F)c1 [Example 503]
3.5	2.5	COc1cc(F)c([C@@H]2CN(c3c(C)ccn(CC(F)F)c3=O)C(=O)[C@H]2NC(=O)c2ccc(OC(F)F)cc2)c(F)c1 [Example 90]
130	5.4	COc1cc(F)c([C@@H]2CN(c3c(C)ccn(C(CO)C(F)(F)F)c3=O)C(=O)[C@H]2NC(=O)c2ccc(OC(F)F)cc2)c(F)c1 (stereo partly drawn) [Example 707]
9.3	1.5	COc1cc(F)c([C@@H]2CN(c3c(C)ccn([C@H]4COC[C@@H]4O)c3=O)C(=O)[C@H]2NC(=O)c2ccc(OC(F)F)cc2)c(F)c1 [Example 624]
3400	4.2	COc1cc(C2CCN(CCF)CC2)nc(N2C(=O)[C@@H](NC(=O)c3ccc(OC(F)F)cc3)[C@H](c3c(F)cc(OC)cc3F)[C@@H]2C)c1 [Example 711]
1900	9.2	COc1cc(F)c([C@@H]2CN(c3cc(NC(C)=O)cn(C)c3=O)C(=O)[C@H]2NC(=O)c2ccc(Cl)cc2)c(F)c1 [Example 299]
2.8	2	COc1ccc([C@@H]2CN(c3cccn(CCC(F)(F)F)c3=O)C(=O)[C@H]2NC(=O)c2ccc(OC(F)(F)F)cc2)c(F)c1 [Example 75]
440	130	COc1cc(N2C[C@@H]3C[C@H]2CO3)nc(N2C(=O)[C@@H](NC(=O)c3ccc(OC(F)(F)F)cc3)[C@H](c3c(F)cc(OC)cc3F)[C@@H]2C)c1 [Example 552]
600	0.2	COc1cc(F)c([C@H]2[C@H](NC(=O)c3ccc(OC(F)F)cc3)C(=O)N(c3cccc(C4CCNCC4)n3)[C@H]2C)c(F)c1 [Example 528]
7.5	8.5	COc1cc(F)c([C@@H]2CN(c3c(C)ccn(C4CCS(=O)(=O)C4)c3=O)C(=O)[C@H]2NC(=O)c2ccc(OC(F)(F)F)cc2)c(F)c1 (stereo partly drawn) [Example 702]

EC50 [1] [nM]	EC50 [2] [nM]	Compound
1.2	6.2	CCn1ccc(C)c(N2C[C@@H](c3c(F)cc(OC)cc3F)[C@H](NC(=O)c3ccc(OC(F)(F)F)cc3)C2=O)c1=O [Example 228]
> 5000	5.5	COc1cc(F)c([C@@H]2CN(c3cc(C)cc(C4CCN(CCO)CC4)n3)C(=O)[C@H]2NC(=O)c2ccc(OC(F)F)cc2)c(F)c1 [Example 715]
160	11.5	COc1cc(F)c([C@@H]2CN(c3c(C)ccn([C@H]4COC[C@@H]4O)c3=O)C(=O)[C@H]2NC(=O)c2ccc(Cl)cc2)c(F)c1 [Example 623]
0.6	4.8	CCn1ccc(C)c(N2C[C@@H](c3ccc(OC)cc3F)[C@H](NC(=O)c3ccc(OC(F)(F)F)cc3)C2=O)c1=O [Example 183]
6.2	7.1	COc1cc(F)c([C@@H]2CN(c3c(C)c4c(n(CCO)c3=O)CCC4)C(=O)[C@H]2NC(=O)c2ccc(OC(F)(F)F)cc2)c(F)c1 [Example 592]
340	3.4	COc1cc(F)c([C@@H]2CN(c3cccn(CCO)c3=O)C(=O)[C@H]2NC(=O)c2ccc(Cl)cc2)c(F)c1 [Example 130]
1.6	3.5	COCC(C(=O)N(C)C)n1cccc(N2C[C@@H](c3c(F)cc(OC)cc3F)[C@H](NC(=O)c3ccc(OC(F)(F)F)cc3)C2=O)c1=O (stereo partly drawn) [Example 134]
560	8.2	COc1cc(F)c([C@@H]2CN(c3nccc(NCC(=O)NC4CC4)c3C(F)(F)F)C(=O)[C@H]2NC(=O)c2ccc(Cl)cc2)c(F)c1 [Example 281]
88	3.8	COc1cc(F)c([C@@H]2CN(c3c(C)ccn(C4CCNC4)c3=O)C(=O)[C@H]2NC(=O)c2ccc(OC(F)(F)F)cc2)c(F)c1 (stereo partly drawn) [Example 602]
130	11	COc1cc(F)c([C@@H]2CN(c3ccc(C)n(C)c3=O)C(=O)[C@H]2NC(=O)c2ccc(OC(F)F)cc2)c(F)c1 [Example 324]
86	1.7	O=C(N[C@@H]1C(=O)N(c2cccn(CC(O)C(F)(F)F)c2=O)C[C@H]1c1ccc(Cl)cc1)c1ccc(OC(F)F)cc1 (stereo partly drawn) [Example 368]
30	6.5	O=C(N[C@@H]1C(=O)N(c2cccn(CC(F)F)c2=O)C[C@H]1c1ccc(Cl)cc1)c1ccc(OC(F)F)cc1 [Example 236]
> 5000	6.3	COc1cc(N2CCN(C)CC2)nc(N2C[C@@H](c3c(F)cc(OC)cc3F)[C@H](NC(=O)c3ccc(Cl)cc3)C2=O)c1 [Example 233]
1600	3.5	COc1cc(F)c([C@@H]2CN(c3ccc(F)c(N4C[C@@H]5C[C@H]4CN5C)n3)C(=O)[C@H]2NC(=O)c2ccc(OC(F)(F)F)cc2)c(F)c1 [Example 572]
52	7	COc1cc(F)c([C@@H]2CN(c3cccn(CC(C)(CO)CO)c3=O)C(=O)[C@H]2NC(=O)c2ccc(OC(F)(F)F)cc2)c(F)c1 [Example 254]
2.5	2	COc1cc(F)c([C@@H]2CN(c3c(C)ccn(CC4CCOC4)c3=O)C(=O)[C@H]2NC(=O)c2ccc(OC(F)F)cc2)c(F)c1 (stereo partly drawn) [Example 693]
6.6	8.7	COc1cc(F)c([C@@H]2CN(c3c(C)ccn(C)c3=O)C(=O)[C@H]2NC(=O)c2ccc(OC(F)(F)F)cc2)c(F)c1 [Example 291]
3	5.2	COCC(C(=O)N1CCOCC1)n1cccc(N2C[C@@H](c3ccc(OC)cc3)[C@H](NC(=O)c3ccc(OC(F)F)cc3)C2=O)c1=O (stereo partly drawn) [Example 441]
